Literature values, collected in patent US8946301B2, “Targeting of T-lymphocytes to treat amyotrophic lateral sclerosis” (ALS Therapy Development Institute, priority 2011, dated 2015).
Where a name gives a salt, the structure may show the parent alone.

Columns and labels:
[1] = cited from earlier work
[2] = system: peripheral blood mononuclear cells (lymphocytes and monocytes); conditions: published reports; cited from earlier work
[3] = system: patients with ALS; conditions: Borras-Blasco et al. 1998; cited from earlier work

CCCCCCCCc1ccc(CCC(N)(CO)CO)cc1 [Fingolimod hydrochloride]
solubility in 0.9% saline ([1]; 0.9% saline): soluble | solubility in aqueous buffers at or above pH 3.0 ([1]; aqueous buffers, pH at or above 3.0): very slightly soluble or practically insoluble | solubility in aqueous buffers at or below pH 2.0 ([1]; aqueous buffers, pH at or below 2.0): soluble | solubility in water ([1]; water): > 10%

NC(CO)(CO)CCc1ccc(Sc2cccc(OCc3ccccc3)c2)cc1Cl [KRP-203, 2-amino-2-[2-[2-chloro-4-(3-phenylmethoxyphenyl)sulfanylphenyl]ethyl]propane-1,3-diol]
lymphocyte homing into peripheral lymph nodes [2]: enhanced | number of granulocytes [2]: not | number of peripheral blood mononuclear cells (lymphocytes and monocytes) [2]: reduce the number

Nc1nc2ccc(OC(F)(F)F)cc2s1 [Riluzole™]
muscular strength of ALS patients [3]: does not appear to provide an improvement of muscular strength
